Source: patent US9809537B2, “Glycosidase inhibitors and uses thereof” (Alectos Therapeutics Inc., priority 2012, dated 2017)

Tests used:
[1] = biological target: T1, human O-GlcNAcase (Homo sapiens, UniProt O60502); test: Fluorescence-based assay for KI values for inhibition of O-GlcNAcase activity; format: biochemical; details: purified human O-GlcNAcase, 4-methylumbelliferyl GlcNAc substrate, pH 7.0, Cheng-Prusoff; read-out: Fluorescence-based hOGA Ki
T1 sequence (O60502 1-916): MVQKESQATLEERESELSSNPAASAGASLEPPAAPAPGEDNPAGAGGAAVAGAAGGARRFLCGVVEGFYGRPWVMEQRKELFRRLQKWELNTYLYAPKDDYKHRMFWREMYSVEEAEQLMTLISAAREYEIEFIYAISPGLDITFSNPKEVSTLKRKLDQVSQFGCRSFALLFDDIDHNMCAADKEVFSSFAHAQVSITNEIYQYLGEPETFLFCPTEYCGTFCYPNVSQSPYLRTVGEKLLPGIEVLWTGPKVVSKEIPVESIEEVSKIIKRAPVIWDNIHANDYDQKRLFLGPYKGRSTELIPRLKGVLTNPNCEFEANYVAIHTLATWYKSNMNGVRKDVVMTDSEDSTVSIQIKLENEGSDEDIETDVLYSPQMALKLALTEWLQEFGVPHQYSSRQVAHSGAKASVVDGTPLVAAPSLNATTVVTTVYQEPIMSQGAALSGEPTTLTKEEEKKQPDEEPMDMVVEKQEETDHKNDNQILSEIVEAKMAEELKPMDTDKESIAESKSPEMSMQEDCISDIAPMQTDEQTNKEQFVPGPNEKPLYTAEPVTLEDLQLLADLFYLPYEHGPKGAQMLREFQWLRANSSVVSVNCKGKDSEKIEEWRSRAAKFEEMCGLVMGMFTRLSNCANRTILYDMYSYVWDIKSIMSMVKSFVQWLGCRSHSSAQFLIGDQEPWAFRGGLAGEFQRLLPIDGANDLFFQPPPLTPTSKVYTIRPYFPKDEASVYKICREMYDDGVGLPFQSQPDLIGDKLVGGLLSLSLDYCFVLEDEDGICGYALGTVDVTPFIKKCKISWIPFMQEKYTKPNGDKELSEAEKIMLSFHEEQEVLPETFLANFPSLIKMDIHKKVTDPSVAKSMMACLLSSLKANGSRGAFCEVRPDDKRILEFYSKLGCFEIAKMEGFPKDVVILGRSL
Experimental: Assay for Determination of KI Values for Inhibition of O-GlcNAcase Activity
Experimental Procedure for Kinetic Analyses:
Enzymatic reactions were carried out in a reaction containing 50 mM NaH2PO4, 100 mM NaCl and 0.1% BSA (pH 7.0) using 2 mM 4-Methylumbelliferyl N-acetyl-β-D-glucosaminide dihydrate (Sigma M2133) dissolved in ddH2O, as a substrate. The amount of purified human O-GlcNAcase enzyme used in the reaction was 0.7 nM. Test compound of varying concentrations was added to the enzyme prior to initiation of the reaction. The reaction was performed at room temperature in a 96-well plate and was initiated with the addition of substrate. The production of fluorescent product was measured every 60 sec for 45 min with a Tecan Infinite M200 plate-reader with excitation at 355 nm and emission detected at […], with 4-Methylumbelliferone (Sigma M1381) used to produce a standard curve. The slope of product production was determined for each concentration of compound tested and plotted, using standard curve fitting algorithms for sigmoidal dose response curves. The values for a four parameter logistic curve fit of the data were determined.
KI values were determined using the Cheng-Prusoff equation; the Km of O-GlcNAcase for substrate was 0.2 mM.

[2] = test system: O-GlcNAcase in rat PC-12 cells; test: Cell-based ELISA of O-GlcNAcylated protein (RL-2 antibody); details: 24 h treatment, O-GlcNAcylated protein level
Text: Assay for Determination of Cellular Activity for Compounds that Inhibit O-GlcNAcase Activity
Inhibition of O-GlcNAcase, which removes O-GlcNAc from cellular proteins, results in an increase in the level of O-GlcNAcylated protein in cells. An increase in O-GlcNAcylated protein can be measured by an antibody, such as RL-2, that binds to O-GlcNAcylated protein. The amount of O-GlcNAcylated protein:RL2 antibody interaction can be measured by enzyme linked immunosorbant assay (ELISA) procedures.
A variety of tissue culture cell lines, expressing endogenous levels of O-GlcNAcase, can be utilized; examples include rat PC-12, and human U-87, or SK—N—SH cells. […] If desired, the total protein concentration of samples is determined using 20 μL of the sample using the BCA method.
The ELISA portion of the assay is performed in a black Maxisorp 96-well plate that is coated overnight at 4° C. with 100 μL/well of the cell lysate (1:10 dilution of the lysate with PBS containing protease inhibitors, phosphatase inhibitors, and PMSF). […] The detection reaction is incubated for 15 minutes at room temperature and then read with excitation at 530 nm and emission at 590 nm.
The amount of O-GlcNAcylated protein, as detected by the ELISA assay, is plotted for each concentration of test compound using standard curve fitting algorithms for sigmoidal dose response curves. […]

With `CC(=O)NC[C@@H]1[C@@H](O)[C@H](O)[C@@H](CO)N1CCCc1ccc(-c2ccccc2)cc1` [Example 3, N-(((2R,3R,4R,5R)-1-(3-([1,1′-biphenyl]-4-yl)propyl)-3,4-dihydroxy-5-(hydroxymethyl)pyrrolidin-2-yl)methyl)acetamide] the Ki [1] was 16 nM and the EC50 [2] was 665 nM.
